Test results as given in PubChem BioAssay AID1918941 (Molecular Pharmacology Branch, DTP, NCI, 2023).

Test system: SW 1271 complex spheroids, viability
Experiment: Anticancer human tumor SW 1271 cell line growth inhibition [LSD1];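 also: spheroids exposed to agents for 7 days before luminescence read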;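 as to viability, T/C: 100% = DMSO vehicle control viability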
Details: for IC50: curve of first compound; for viability, T/C: stronger effect = lower value
In short: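 Complex spheroids of tumor cells with HUVEC and human MSCs, exposed to iadademstat combined with other agents. Each agent tested in half-log steps from near clinical Cmax (else 10 microM top), DMSO ≤0.25%.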

[1] = second compound 0.1 µM, first compound 0.0316 µM
[2] = second compound 0.1 µM, first compound 0.1 µM
[3] = second compound 0.1 µM, first compound 0.316 µM
[4] = second compound 0.1 µM, first compound 1 µM
[5] = second compound 0.316 µM, first compound 0.0316 µM
[6] = second compound 0.316 µM, first compound 0.1 µM
[7] = second compound 0.316 µM, first compound 0.316 µM
[8] = second compound 0.316 µM, first compound 1 µM
[9] = second compound 1 µM, first compound 0.0316 µM
[10] = second compound 1 µM, first compound 0.1 µM
[11] = second compound 1 µM, first compound 0.316 µM
[12] = second compound 1 µM, first compound 1 µM
[13] = second compound 3.16 µM, first compound 0.0316 µM
[14] = second compound 3.16 µM, first compound 0.1 µM
[15] = second compound 3.16 µM, first compound 0.316 µM
[16] = second compound 3.16 µM, first compound 1 µM
[17] = second compound 10 µM, first compound 0.0316 µM
[18] = second compound 10 µM, first compound 0.1 µM
[19] = second compound 10 µM, first compound 0.316 µM
[20] = second compound 10 µM, first compound 1 µM
[21] = second compound 0.1 µM, first compound 0.00316 µM
[22] = second compound 0.1 µM, first compound 0.01 µM
[23] = second compound 0.316 µM, first compound 0.00316 µM
[24] = second compound 0.316 µM, first compound 0.01 µM
[25] = second compound 1 µM, first compound 0.00316 µM
[26] = second compound 1 µM, first compound 0.01 µM
[27] = second compound 3.16 µM, first compound 0.00316 µM
[28] = second compound 3.16 µM, first compound 0.01 µM
[29] = second compound 10 µM, first compound 0.00316 µM
[30] = second compound 10 µM, first compound 0.01 µM
[31] = second compound 0.1 µM, first compound 0.00949 µM
[32] = second compound 0.1 µM, first compound 0.03 µM
[33] = second compound 0.1 µM, first compound 0.0949 µM
[34] = second compound 0.1 µM, first compound 0.3 µM
[35] = second compound 0.1 µM, first compound 0.949 µM
[36] = second compound 0.1 µM, first compound 3 µM
[37] = second compound 0.316 µM, first compound 0.00949 µM
[38] = second compound 0.316 µM, first compound 0.03 µM
[39] = second compound 0.316 µM, first compound 0.0949 µM
[40] = second compound 0.316 µM, first compound 0.3 µM
[41] = second compound 0.316 µM, first compound 0.949 µM
[42] = second compound 0.316 µM, first compound 3 µM
[43] = second compound 1 µM, first compound 0.00949 µM
[44] = second compound 1 µM, first compound 0.03 µM
[45] = second compound 1 µM, first compound 0.0949 µM
[46] = second compound 1 µM, first compound 0.3 µM
[47] = second compound 1 µM, first compound 0.949 µM
[48] = second compound 1 µM, first compound 3 µM
[49] = second compound 3.16 µM, first compound 0.00949 µM
[50] = second compound 3.16 µM, first compound 0.03 µM
[51] = second compound 3.16 µM, first compound 0.0949 µM
[52] = second compound 3.16 µM, first compound 0.3 µM
[53] = second compound 3.16 µM, first compound 0.949 µM
[54] = second compound 3.16 µM, first compound 3 µM
[55] = second compound 10 µM, first compound 0.00949 µM
[56] = second compound 10 µM, first compound 0.03 µM
[57] = second compound 10 µM, first compound 0.0949 µM
[58] = second compound 10 µM, first compound 0.3 µM
[59] = second compound 10 µM, first compound 0.949 µM
[60] = second compound 10 µM, first compound 3 µM

CC1(C)CCC(CN2CCN(c3ccc(C(=O)NS(=O)(=O)c4ccc(NCC5CCOCC5)c([N+](=O)[O-])c4)c(Oc4cnc5[nH]ccc5c4)c3)CC2)=C(c2ccc(Cl)cc2)C1 + NC1CC1c1ccc(-c2cccc(O)c2)cc1
IC50 (second compound 0.1 µM): 2550 nM | IC50 (second compound 0.316 µM): 2970 nM | IC50 (second compound 1 µM): 2490 nM | IC50 (second compound 3.16 µM): 1910 nM | IC50 (second compound 10 µM): 2100 nM | viability, T/C [1]: 80.6% | viability, T/C [2]: 84.3% | viability, T/C [3]: 91.6% | viability, T/C [4]: 78.3% | viability, T/C (second compound 0.1 µM, first compound 3.16 µM): 43.4% | viability, T/C (second compound 0.1 µM, first compound 10 µM): 1.33% | viability, T/C [5]: 85.8% | viability, T/C [6]: 95% | viability, T/C [7]: 91.8% | viability, T/C [8]: 85.5% | viability, T/C (second compound 0.316 µM, first compound 3.16 µM): 47.9% | viability, T/C (second compound 0.316 µM, first compound 10 µM): 1.12% | viability, T/C [9]: 91.3% | viability, T/C [10]: 78.7% | viability, T/C [11]: 82.4% | viability, T/C [12]: 80.8% | viability, T/C (second compound 1 µM, first compound 3.16 µM): 42% | viability, T/C (second compound 1 µM, first compound 10 µM): 1.39% | viability, T/C [13]: 78.4% | viability, T/C [14]: 81.7% | viability, T/C [15]: 79% | viability, T/C [16]: 66.6% | viability, T/C (second compound 3.16 µM, first compound 3.16 µM): 36.7% | viability, T/C (second compound 3.16 µM, first compound 10 µM): 1.44% | viability, T/C [17]: 73.3% | viability, T/C [18]: 65.6% | viability, T/C [19]: 64.1% | viability, T/C [20]: 69.8% | viability, T/C (second compound 10 µM, first compound 3.16 µM): 40% | viability, T/C (second compound 10 µM, first compound 10 µM): 0.32%

COc1cc(Nc2ncc3c(n2)-c2ccc(Cl)cc2C(c2c(F)cccc2OC)=NC3)ccc1C(=O)O + NC1CC1c1ccc(-c2cccc(O)c2)cc1
IC50 (second compound 0.1 µM): 79.7 nM | IC50 (second compound 0.316 µM): 69 nM | IC50 (second compound 1 µM): 114 nM | IC50 (second compound 3.16 µM): 79 nM | IC50 (second compound 10 µM): 64.5 nM | viability, T/C [21]: 75.8% | viability, T/C [22]: 69.2% | viability, T/C [1]: 67.3% | viability, T/C [2]: 43.5% | viability, T/C [3]: 29% | viability, T/C [4]: 13.3% | viability, T/C [23]: 62.6% | viability, T/C [24]: 69.7% | viability, T/C [5]: 58.2% | viability, T/C [6]: 43% | viability, T/C [7]: 31.4% | viability, T/C [8]: 13.1% | viability, T/C [25]: 68.4% | viability, T/C [26]: 67.3% | viability, T/C [9]: 73.6% | viability, T/C [10]: 48.1% | viability, T/C [11]: 31% | viability, T/C [12]: 11.6% | viability, T/C [27]: 60.1% | viability, T/C [28]: 55.7% | viability, T/C [13]: 67.7% | viability, T/C [14]: 43.4% | viability, T/C [15]: 28.6% | viability, T/C [16]: 13.7% | viability, T/C [29]: 65.6% | viability, T/C [30]: 59.1% | viability, T/C [17]: 61.2% | viability, T/C [18]: 43% | viability, T/C [19]: 29.6% | viability, T/C [20]: 17.2%

Cn1ncnc1C1c2n[nH]c(=O)c3cc(F)cc(c23)NC1c1ccc(F)cc1 (stereo not given) + NC1CC1c1ccc(-c2cccc(O)c2)cc1
IC50 (second compound 0.1 µM): > 100 nM | IC50 (second compound 0.316 µM): > 100 nM | IC50 (second compound 1 µM): > 100 nM | IC50 (second compound 3.16 µM): > 100 nM | IC50 (second compound 10 µM): 65.5 nM | viability, T/C (second compound 0.1 µM, first compound 0.000316 µM): 97.8% | viability, T/C (second compound 0.1 µM, first compound 0.001 µM): 80.9% | viability, T/C [21]: 72.3% | viability, T/C [22]: 85.8% | viability, T/C [1]: 71.3% | viability, T/C [2]: 66.7% | viability, T/C (second compound 0.316 µM, first compound 0.000316 µM): 77.6% | viability, T/C (second compound 0.316 µM, first compound 0.001 µM): 72.6% | viability, T/C [23]: 67.5% | viability, T/C [24]: 68.9% | viability, T/C [5]: 71% | viability, T/C [6]: 77% | viability, T/C (second compound 1 µM, first compound 0.000316 µM): 78.1% | viability, T/C (second compound 1 µM, first compound 0.001 µM): 75.7% | viability, T/C [25]: 72.8% | viability, T/C [26]: 67.5% | viability, T/C [9]: 66.1% | viability, T/C [10]: 82.7% | viability, T/C (second compound 3.16 µM, first compound 0.000316 µM): 75.8% | viability, T/C (second compound 3.16 µM, first compound 0.001 µM): 85.5% | viability, T/C [27]: 78.9% | viability, T/C [28]: 57.3% | viability, T/C [13]: 59.2% | viability, T/C [14]: 57.9% | viability, T/C (second compound 10 µM, first compound 0.000316 µM): 64.7% | viability, T/C (second compound 10 µM, first compound 0.001 µM): 66.7% | viability, T/C [29]: 67.2% | viability, T/C [30]: 61.3% | viability, T/C [17]: 48.6% | viability, T/C [18]: 49.7%

NS(=O)(=O)OCC1CC(n2ccc3c(NC4CCc5ccccc54)ncnc32)CC1O (stereo not given) + NC1CC1c1ccc(-c2cccc(O)c2)cc1
IC50 (second compound 0.1 µM): > 3000 nM | IC50 (second compound 0.316 µM): > 3000 nM | IC50 (second compound 1 µM): > 3000 nM | IC50 (second compound 3.16 µM): > 3000 nM | IC50 (second compound 10 µM): > 3000 nM | viability, T/C [31]: 151% | viability, T/C [32]: 123% | viability, T/C [33]: 103% | viability, T/C [34]: 86% | viability, T/C [35]: 85.5% | viability, T/C [36]: 88.5% | viability, T/C [37]: 166% | viability, T/C [38]: 112% | viability, T/C [39]: 94.5% | viability, T/C [40]: 82.3% | viability, T/C [41]: 82.1% | viability, T/C [42]: 79.9% | viability, T/C [43]: 148% | viability, T/C [44]: 110% | viability, T/C [45]: 95.9% | viability, T/C [46]: 75.8% | viability, T/C [47]: 85.9% | viability, T/C [48]: 79% | viability, T/C [49]: 144% | viability, T/C [50]: 101% | viability, T/C [51]: 99.9% | viability, T/C [52]: 85.5% | viability, T/C [53]: 75.6% | viability, T/C [54]: 83.9% | viability, T/C [55]: 141% | viability, T/C [56]: 116% | viability, T/C [57]: 115% | viability, T/C [58]: 101% | viability, T/C [59]: 87.3% | viability, T/C [60]: 91.1%

O=C(C=Cc1cccc(S(=O)(=O)Nc2ccccc2)c1)NO + NC1CC1c1ccc(-c2cccc(O)c2)cc1
IC50 (second compound 0.1 µM): 98.2 nM | IC50 (second compound 0.316 µM): 62.9 nM | IC50 (second compound 1 µM): 55.3 nM | IC50 (second compound 3.16 µM): 60 nM | IC50 (second compound 10 µM): 68.1 nM | viability, T/C [31]: 74.5% | viability, T/C [32]: 69% | viability, T/C [33]: 51.8% | viability, T/C [34]: 17.9% | viability, T/C [35]: 7.5% | viability, T/C [36]: 0.27% | viability, T/C [37]: 70.3% | viability, T/C [38]: 61.8% | viability, T/C [39]: 44% | viability, T/C [40]: 17.4% | viability, T/C [41]: 6.95% | viability, T/C [42]: 0.16% | viability, T/C [43]: 75.7% | viability, T/C [44]: 60.1% | viability, T/C [45]: 41.8% | viability, T/C [46]: 14.3% | viability, T/C [47]: 6.33% | viability, T/C [48]: 0.7% | viability, T/C [49]: 72.7% | viability, T/C [50]: 58.4% | viability, T/C [51]: 45.6% | viability, T/C [52]: 14.1% | viability, T/C [53]: 6.89% | viability, T/C [54]: 0.2% | viability, T/C [55]: 67.1% | viability, T/C [56]: 59.9% | viability, T/C [57]: 46.5% | viability, T/C [58]: 17.6% | viability, T/C [59]: 5.74% | viability, T/C [60]: 0.36%
